# Test results: patent publication US20050234073A1, “Methods of inhibiting inflammation” (priority 2003, published 2005)
# Assays:
# [1] = test system: MODE-K cells; assay: MODE-K cell presentation of α-galcer to DN32 cells (IL-2 ELISA); assay type: cell-based, mouse; details: MODE-K cells incubated with inhibitor (10 uM)
# Method: FIG. 17A is a bar chart showing IL-2 production of MODE-K cells cultured in the presence of BMS212122 (MTPi) or vehicle were incubated with α-galcer for 3 hours, washed, and co cultured with DN32 cells. IL-2 concentrations were measured by ELISA of 24 hour culture supernatants.
# APCs were incubated with 100 ng/mL α-galcer (kindly provided by Dr. H. Ploegh) for 3 hours, washed three times in PBS and aliquoted into a 96 well plate at 10^6 cells/mL. DN32 cells were added at 1:1 E:T ratio unless otherwise indicated. CD4^+ cells were isolated from spleens of OT-II transgenic mice using positive selection on CD4 magnetic beads (Miltenyi Biotec) and incubated with APCs and 100 μg/mL ovalbumin. The 24.8 NKT cell line was incubated with APCs in the absence of added antigen at E:T=2:1 unless otherwise indicated. Mouse IL-2 production was assessed by ELISA (OptEIA, BD PharMingen) of 24 or 40 hour culture supernatants. APCs were treated with BMS212122 (10 uM dissolved in DMSO; kindly provided by Bristol Myers Squibb, New Jersey) as indicated and washed prior to addition of T or NKT cells. […]
# The relationship between MTP and CD1d in large intestinal epithelial cells (IECs) was determined. […]
# [2] = test system: BMDCs; assay: Flow cytometry of surface markers on BMDCs; assay type: cell-based, mouse
# Method: FIG. 17E is a flow cytometric analysis showing BMDCs cultured for 4 days with BMS212122 were stained with FITC-conjugated mAb 1B1. Dashed line represents the isotype control.
# FIG. 18 is flow cytometric analysis of in vitro differentiated bone marrow cells from wild type mice incubated with BMS212122 (MTPi) or vehicle Surface staining was performed using antibodies to MHC II (FITC-conjugated) and CD11c (PE-conjugated).
# Bone marrow was extracted from the femurs of C57BL6 or MTPmx1cre mice, washed once in PBS and resuspended in R10 supplemented with culture supernatant from murine GM-CSF transfected cells for a final concentration of 200 U/mL GM-CSF. BMDCs were then cultured in bacteriological plates for 12-14 days as described. Differentiated cells were harvested by gentle pipetting, washed in PBS, and analyzed by flow cytometry for surface expression of CD11c and I-A^b. Human monocytes were harvested from the peripheral blood of healthy volunteers by positive selection on CD14 magnetic beads (Miltenyi Biotec) and cultured in R10 medium at 10^6 cells per mL supplemented with 200 U/mL recombinant hIL-4 and 300 U/mL recombinant hGM-CSF (PeproTech, Rocky Hill, N.J.). After 5 days cells were dislodged by gentle pipetting, analyzed by flow cytometry and assayed for antigen presentation.
# Mouse cells were stained using the following antibodies: FITC-conjugated α-CD1d (1B1, PharMingen); PE-conjugated α-CD11c (HL3, PharMingen); FITC-conjugated α-1-A^d (AMS-32.1, PharMingen); PE-conjugated α-CD69 (H1.2F3, PharMingen); PE-conjugated α-B220 (RA3-6B2, PharMingen). Human cells were stained using: PE-conjugated α-CD83 (550634, PharMingen); FITC-conjugated α-HLA-A,B,C (557348, PharMingen); α-HLA DR,DP,DQ (32381A, PharMingen); α-CD1d (42.1 or 51.1.3); α-mouse IgG+IgM (AMI1708, Biosource, Camarillo, Calif.). Staining was performed in the presence of Via-Probe (PharMingen) and analyzed with a FACSort flow cytometer (Becton Dickinson).
# The role of MTP in CD1d presentation by primary mouse APCs was examined. Splenocytes were isolated from wild type mice and assayed for their ability to present an exogenous antigen, α-galcer, to DN32 NKT cells and their ability to stimulate the autoreactive NKT cell line 24.8. When splenocytes were incubated with BMS212122 for 24 hours prior to addition of NKT cells, their ability to present exogenous and endogenous CD1d-restricted antigens was reduced (FIG. 17B). […] Dendritic cells were then isolated from wild type splenocytes by positive selection on CD11c magnetic beads. […] Dendritic cells from mouse bone marrow (BMDC) were cultured with BMS212122 or vehicle control after 6 days of differentiation in the presence of GM-CSF. On day 10, BMDCs were collected and cocultured with NKT cells. […]
smiles,measurement,setting,value
"Cc1ccc2c(nc(C)n2CCCCC2(C(=O)NCC(F)(F)F)c3ccccc3-c3ccccc32)c1NC(=O)c1ccccc1-c1ccc(C(F)(F)F)cc1 [BMS212122, 9-[4-[2,5-Dimethyl-4-[[[4′-(trifluoromethyl)[1,1′-biphenyl]-2-yl]carbonyl]amino]-1H-benzimidazol-1-yl]butyl]-N-(2,2,2-trifluoroethyl)-9H-fluorene-9-carboxamide]",presentation of α-galcer to DN32 cells,[1],decreased
same,CD11c surface staining,[2]; BMDCs,unaffected
same,MHC class II surface staining,[2]; BMDCs,unaffected
same,"CD1d expression on BMDCs, % of vehicle controls",[2]; after 4 days of treatment,66%
same,"CD1d expression on BMDCs, % of level in vehicle treated controls",[2]; one day after addition,86%
